Experimental data from patent US10473645B2, “Methods for identifying a receptor for a ligand and uses thereof” (UNIVERSITE DE GENEVE, priority 2014, dated 2019).

Tests used:
[1] = target: T1, OR67c (Drosophila melanogaster, UniProt Q9VT90); conditions: Hallem and Carlson, 2006; cited from earlier work
[2] = target: T1, OR67c; assay: Drosophila OR transcript level by RT-qPCR after odorant exposure; assay type: in vivo, Drosphila melanogaster; set-up: from tissue; host or cells: olfactory neurons of living W1118 flies (heads / antennae collected for RNA); conditions: 5% odorant in DMSO, 5 hours, fly heads
Description: (§1) Drosophila (W1118) were collected between 0 and 14 hours after hatching. Males and females were exposed separately.
(§2) For flies, after exposure, vials containing the animals were placed upside down in a −80° C. freezer for five minutes, then kept in a −20° C. freezer until dissection. Whole heads were removed by hand and placed in a screw-cap tube containing 1 ml of Trizol (Ambion) and a 0.5 cm diameter steel ball, and kept on ice. Samples were homogenized using four runs of 15 s at 6 m/s on a FastPrep®-24 instrument (MP Biomedicals).
(§3) Samples were cooled on ice between each run. RNA extraction followed the Trizol protocol according to the manufacturer instructions, and using 5 μg of RNase-free glycogen as carrier for RNA precipitation. The RNA pellet was resuspended in 20 μl of RNase-free water and a DNAse treatment (Life Technologies Ambion DNase I®) was performed.
(§4) 24 hours-old Drosphila melanogaster flies were kept in plastic tubes and exposed to either 5% ethyl lactate diluted in DMSO or to 5% geranyl acetate diluted in DMSO. The odorants were spotted on papers that were introduced into the plastic tubes. 10 flies were used per condition (8 independent extracts per condition). 5 hours after exposure heads were collected and RNA extracted.
(§5) The transcript levels for Or67c (a known receptor for ethyl lactate) and Or82a (a known receptor for geranyl acetate) were evaluated by RT-qPCR.

[3] = target: T2, OR82a (Drosophila melanogaster, UniProt P82986); conditions: Hallem and Carlson, 2006; cited from earlier work
T2 sequence (P82986 whole entry): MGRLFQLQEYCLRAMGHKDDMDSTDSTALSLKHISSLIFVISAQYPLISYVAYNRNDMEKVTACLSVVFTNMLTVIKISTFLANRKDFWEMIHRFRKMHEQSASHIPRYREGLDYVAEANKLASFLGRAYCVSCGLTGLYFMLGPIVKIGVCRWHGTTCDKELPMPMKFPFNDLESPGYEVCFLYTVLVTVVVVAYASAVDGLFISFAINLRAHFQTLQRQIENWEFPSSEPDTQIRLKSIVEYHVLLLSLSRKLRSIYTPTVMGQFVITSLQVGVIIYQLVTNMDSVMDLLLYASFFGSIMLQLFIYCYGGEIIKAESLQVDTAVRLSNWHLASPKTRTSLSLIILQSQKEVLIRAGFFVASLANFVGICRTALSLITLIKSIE
T2 sequence (Q9VNB5 whole entry partner): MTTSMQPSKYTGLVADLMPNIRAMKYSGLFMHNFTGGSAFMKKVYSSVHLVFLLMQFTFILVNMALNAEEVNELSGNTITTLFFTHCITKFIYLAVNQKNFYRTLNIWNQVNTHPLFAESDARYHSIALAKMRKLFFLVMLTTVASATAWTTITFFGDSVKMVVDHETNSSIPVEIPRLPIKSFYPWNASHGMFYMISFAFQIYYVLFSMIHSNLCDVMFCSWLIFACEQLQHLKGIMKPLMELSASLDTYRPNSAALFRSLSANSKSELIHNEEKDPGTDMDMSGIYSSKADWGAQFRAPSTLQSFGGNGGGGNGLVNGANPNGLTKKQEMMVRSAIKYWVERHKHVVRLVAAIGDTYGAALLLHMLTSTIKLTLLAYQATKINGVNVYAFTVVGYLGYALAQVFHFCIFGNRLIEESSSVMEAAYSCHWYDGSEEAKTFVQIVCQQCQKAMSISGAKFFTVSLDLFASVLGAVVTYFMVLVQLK

[4] = target: T2, OR82a; assay: Drosophila OR transcript level by RT-qPCR after odorant exposure; assay type: in vivo, Drosphila melanogaster; set-up: from tissue; host or cells: olfactory neurons of living W1118 flies (heads / antennae collected for RNA); conditions: 5% odorant in DMSO, 5 hours, fly heads
Description: as §1, §2, §3, §4, §5

T1 sequence (Q9VT90 whole entry): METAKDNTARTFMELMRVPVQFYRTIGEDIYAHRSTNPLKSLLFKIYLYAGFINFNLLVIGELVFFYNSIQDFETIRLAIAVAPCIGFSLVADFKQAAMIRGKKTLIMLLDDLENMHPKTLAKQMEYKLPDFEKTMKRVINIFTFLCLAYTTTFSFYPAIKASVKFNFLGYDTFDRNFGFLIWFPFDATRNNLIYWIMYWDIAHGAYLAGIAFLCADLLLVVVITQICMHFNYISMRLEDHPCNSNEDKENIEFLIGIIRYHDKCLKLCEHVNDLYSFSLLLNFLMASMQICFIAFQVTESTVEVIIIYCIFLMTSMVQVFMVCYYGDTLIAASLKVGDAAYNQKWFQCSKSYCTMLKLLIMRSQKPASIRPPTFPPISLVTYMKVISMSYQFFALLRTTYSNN
T1 sequence (Q9VNB5 whole entry partner): as the sequence (Q9VNB5 whole entry partner) above

SMILES	OR67c response previously shown [1]	Or67c mRNA level relative to control ORs [2]	OR82a response previously shown [3]	Or82a mRNA level relative to control ORs [4]
CCOC(=O)C(C)O (stereo not shown) [ethyl lactate]	respond	0.7 ×		
CC(=O)OC/C=C(\C)CCC=C(C)C [geranyl acetate]			respond	0.6 ×
